Assay results: EP0457908A1, “HYDROCHLORIDE 2,3,3a,4,5,6-HEXAHYDRO-8-CYCLOHEXYL-1H-PYRAZINO (3,2,1-j,k)CARBAZOL, METHOD OF OBTAINING IT AND A PHARMACEUTICAL PREPARATION OF ANTIDEPRESSIVE ACTION BASED ON IT” (priority 1989, dated 1991)
Counter-ions that a name gives are not always drawn.

Experiments:
white rats = experiment: Stereotypy induced by d,l-amphetamine; format: in vivo; conditions: distilled water = 100
Procedure: To evaluate the influence on stereotypy, the experiments were carried out on white rats of both sexes with a mass of 100-150 g. […] Stereotypy was assessed in points of from to 3 (after Janssen et al., 1967).

white mice [1] = experiment: Porsolt's swimming behaviour test (duration of immobilization); format: in vivo; conditions: for Duration of immobilization, %: distilled water = 100
Procedure: The effect of the compound according to the present invention on the duration of immobilization in Porsolt's swimming behaviour test (Porsolt et al., 1977) in experiments on white mice of both sexes with a mass of 16-18 g. […] Sixty minutes after the last (or a single) administration of the preparations, the mice were placed into cylinders (10 cm diameter, 25 cm height) filled with water to 6 cm. The temperature of water was 21-22 °C. […] The number and duration of all stops in swimming (immobilization) over the observation period were recorded.

cats = experiment: Bioelectrical activity of the brain (electroencephalogram), cats; format: in vivo; conditions: for effect on the electroencephalogram: dose and species not given
From the text: The study of the effect on the bioelectrical activity of the brain was effected in acute experiments using 8 consious cats immobilized with diplacin with a mass of 2.5-3.4 kg under conditions of a controlled breathing and 25 rabbits with a mass of 2.6-3.1 kg with chronically implanted electrodes. Recorded on an electroencephalograph was an electroencephalogram of the sensomotor, parietal and visual regions of the cerebral cortex in cats, plus that of the reticular formation of the midbrain, dorsal hippocamp and amygdala in rabbits.

male white mice = experiment: Hyperlocomotion induced by d,l-amphetamine; format: in vivo; conditions: 10-20 minutes after d,l-amphetamine 2.5 mg/kg intraperitoneally, distilled water 1,924.5±177.6
Procedure: The influence on hyperlocomotion induced by d,l-amphetamine was studied in experiments on male white mice with a mass of 20-22 g.
The locomotive activity of the mice was recorded 10-20 minutes after administration of d,l-amphetamine for 10 minutes.

male rats = experiment: Conditional reflex of passive avoidance after amnesia (antiamnestic effect); format: in vivo; conditions: for Number of rats, %, remained on the platform for 1 minute, 2.5 hours after administration of scopolamine (1 mg/kg hypodermally): amnesia control 10±3.3, distilled water 85±2.0; for Number of rats, %, remained on the platform for 1 minute, 1 day after electric shock: electroshock alone 14.2±3.0, distilled water 85±2.0
Procedure: Also studied was the effect of the compound according to the present invention on reproduction of the memory traces upon amnesia.
The experiments were carried out using male rats of a mass of 180-220 g.
The antiamnestic effect of the compound according to the present invention was assessed by the method of a conditional reflex of a passive avoidance with a subsequent use, as amnesic factors, of an electric shock (50 mA, 0.3 ms) through ear electrodes or scopolamine (1 mg/kg hypodermally).
The learning of the conditional reflex of a passive avoidance was effected by the "Step-down" method (Izquerdo, 1981) in an experimental unit consisting of a 30x30x40 cm chamber with an electrified floor having in its centre a plastic platform of 10x15x0.5 cm size. A rat was placed onto the platform and a latent period of its escape therefrom was recorded (in seconds). When escaping the platform onto the floor, the rat was subjected to an electric irritation on paws (0.5 mA, 10 seconds) that made it to climb the platform. The learning course took 6 sessions, each of 3 minutes duration. The conditional response was regarded as acquired if an animal remained on the platform for 1 minute.
The amnesic effect was produced immediately after learning course and 30 minutes thereafter the compound according to the present invention was administered in the doses of 1 and 3 mg/kg or (for comparison) pyracetam was administered in the doses of 100, 300, 600 and 1,000 mg/kg. The reproduction of the memory trace was assessed 24 hours after the electric shock and 2.5 hours after administration of scopolamine.

[2] = Pharmacokinetics: penetration into and stay in the brain tissues; conditions: in vivo
white mice [3] = experiment: Enhancement of the effect of 5-hydroxytryptophane (head shaking); format: in vivo; conditions: Mus musculus, po, 25 min; orally, 60 minutes prior to 5-hydroxytryptophane 50 mg/kg intraperitoneally; read 25 minutes after; read-out: ED₅₀, the dose at which head shaking were noticed in 50% of the animals
Procedure: The compound according to the present invention was tasted for the exciting effect of 5-hydroxytryptophane (head shaking).
The compound according to the present invention in the doses of 1.0, 2.5, 5.0 and 10 mg/kg was administered orally 60 minutes prior to an intraperitoneal administration of 5-hydroxytryptophane (50 mg/kg).

[4] = 5-days' administration, 10.0 mg/kg orally (dose from row order)
[5] = 5-days' administration, 25.0 mg/kg orally (dose from row order)
[6] = 18-days' administration, 10.0 mg/kg orally (dose from row order)
[7] = 18-days' administration, 25.0 mg/kg orally (dose from row order)
[8] = single administration, 10.0 mg/kg orally
[9] = single administration, 25.0 mg/kg orally

Structure (SMILES)	Stereotypy (tolal, for 4 measurements for 4 hours after hypodermal administration of d,l-amphetamine), % (white rats; oral dose 5.0 mg/kg) [%]	Stereotypy (tolal, for 4 measurements for 4 hours after hypodermal administration of d,l-amphetamine), % (white rats; oral dose 10.0 mg/kg) [%]	Duration of immobilization, Seconds, M±m (white mice [1]; [4]) [s]	Duration of immobilization, % (white mice [1]; [4]) [%]	Duration of immobilization, Seconds, M±m (white mice [1]; [5]) [s]	Duration of immobilization, % (white mice [1]; [5]) [%]	Duration of immobilization, Seconds, M±m (white mice [1]; [6]) [s]	Duration of immobilization, % (white mice [1]; [6]) [%]	Duration of immobilization, Seconds, M±m (white mice [1]; [7]) [s]	Duration of immobilization, % (white mice [1]; [7]) [%]	Duration of immobilization, Seconds, M±m (white mice [1]; [8]) [s]	Duration of immobilization, % (white mice [1]; [8]) [%]	Duration of immobilization, % (white mice [1]; [9]) [%]	effect on the electroencephalogram (cats)	Average value of locomotor activity of a group of 5 mice for 10 minutes (male white mice; 5.0 mg/kg oral)	Average value of locomotor activity of a group of 5 mice for 10 minutes (male white mice; 10.0 mg/kg oral)	other results
CN(C)CCCN1c2ccccc2CCc2ccccc21 [Imipramine, N-(3-dimethylaminopropyl)-aminodibenzyl hydrochloride]	200	306	92 ± 5.9	59	61 ± 6.3	39	96 ± 9.8	52	66 ± 9.8	36	131 ± 5.6	88	70	synchronizing effect	1,440.3±365.2	2,024.5±221.7	–
NC(=O)CN1CCCC1=O [Pyracetam]	–	–	–	–	–	–	–	–	–	–	–	–	–	–	–	–	Number of rats, %, remained on the platform for 1 minute, 2.5 hours after administration of scopolamine (1 mg/kg hypodermally) (male rats; 100 mg/kg oral): 12±5.5%; Number of rats, %, remained on the platform for 1 minute, 1 day after electric shock (male rats; 100 mg/kg oral): 12±3.3%; Number of rats, %, remained on the platform for 1 minute, 2.5 hours after administration of scopolamine (1 mg/kg hypodermally) (male rats; 300 mg/kg oral): 13±1.6%; Number of rats, %, remained on the platform for 1 minute, 1 day after electric shock (male rats; 300 mg/kg oral): 13±4.2%; Number of rats, %, remained on the platform for 1 minute, 2.5 hours after administration of scopolamine (1 mg/kg hypodermally) (male rats; 600 mg/kg oral): 20±5.5%; Number of rats, %, remained on the platform for 1 minute, 1 day after electric shock (male rats; 600 mg/kg oral): 12±3.3%; Number of rats, %, remained on the platform for 1 minute, 1 day after electric shock (male rats; 1000 mg/kg oral): 46±6.4%
Cc1ccc2c(c1)c1c3n2CCNC3CCC1 (stereo not shown) [Pyrazidol, 2,3,3a,4,5,6-hexahydro-8-methyl-1H-pyrazino(3,2,1-j,k)-carbazole hydrochloride]	165	210	142 ± 5.7	87	116 ± 8.1	71	129 ± 8.0	70	112 ± 8.6	61	164 ± 5.9	93	82	–	1,440.0±380.2	1,926.0±119.9	time the drug remains in the brain tissues [2]: at most 1.5 hours; ED50 (white mice [3]): 20 mg/kg; Duration of immobilization, Seconds, M±m (white mice [1]; [9]): 144 ± 9.9 s; effect on the electroencephalogram of the cortex and subcortical structures of the brain (cats; 1 to 5 mg/kg intravenously, species not specified): predominantly activating effect
CN(C)CCC=C1c2ccccc2CCc2ccccc21 [amitryptyline, reference compound]	–	–	–	–	–	–	–	–	–	–	–	–	–	synchronizing effect	–	–	–
